Test results: US8664235B2, “6-Halogeno-[1,2,4]triazolo[1,5-a]pyrimidines for combating animal pests” (Merial Limited, priority 2003, dated 2014)

What was measured:
Type in all cases: in vivo
[1] = tested on: Green Peach Aphid (Myzus persicae); experiment: Green peach aphid test, pepper leaves dipped; details: 120 h, read-out: mortality in comparison with untreated controls
Method: (§1) Surfactant (Alkamuls EL 620) was added at the rate of 0.1% (vol/vol).
(§2) After the experiments were completed, in each case the lowest concentration was determined at which the compound still caused an 75 to 100% inhibition or mortality in comparison with untreated controls (limit or minimal concentration).
(§3) Pepper plants in the 2nd leaf-pair stage (variety ‘California Wonder’) are infested with approximately 40 laboratory-reared aphids by placing infested leaf sections on top of the test plants. The leaf sections are removed after 24 hr. The leaves of the intact plants are dipped into gradient solutions of the test compound. Aphid mortality on the treated plants, relative to mortality on check plants, is determined after 5 days.

[2] = tested on: Cotton Aphid (Aphis gossypii); experiment: Cotton aphid test, cotyledons dipped in test solution; details: 120 h, cotton plants, after 5 days, read-out: mortality in comparison with untreated controls
Method: as §1, §2
as §3, with “Cotton” for “Pepper”, “cotyledon” for “2nd leaf-pair”, “‘Delta Pine’)” for “‘California Wonder’)”, “100” for “40”, “cotyledons” for “leaves”

[3] = tested on: Twospotted Spider Mite (Tetranychus urticae); experiment: Twospotted spider mite test, lima bean foliage dipped; details: foliar, 120 h, lima bean plants, after 5 days, read-out: mortality in comparison with untreated controls
Method: as §1, §2
Lima bean plants in the 1st leaf-pair stage (variety ‘Henderson’) are infested with approximately 100 laboratory-reared mites per leaf by placing infested leaf sections on top of the test plants. The leaf sections are removed after 24 hr. The foliage of the intact plants is dipped into gradient solutions of the test compound. Mite mortality is determined after 5 days.

Bean Aphid (Aphis fabae) = experiment: Bean aphid test, nasturtium foliage and stem dipped; details: foliar, 72 h, nasturtium plants, after 3 days, read-out: mortality in comparison with untreated controls
Method: as §1, §2
Nasturtium plants in the 1st leaf-pair stage (variety ‘Mixed Jewel’) are infested with approximately 25 laboratory-reared aphids by placing infested cut plants on top of the test plants. The cut plants are removed after 24 hr. The foliage and stem of the test plants are dipped into gradient solutions of the test compound. Aphid mortality is determined after 3 days.

| SMILES | mortality at 300 ppm [1] [%] | mortality at 300 ppm [2] [%] | mortality at 300 ppm [3] [%] | mortality at 300 ppm (Bean Aphid (Aphis fabae)) [%] |
| --- | --- | --- | --- | --- |
| Cc1nc2ncnn2c(N[C@@H](C)c2ccc(F)cc2)c1Cl [Example 114, (S)-(6-chloro-5-methyl-[1,2,4]triazolo[1,5-a]pyrimidin-7-yl)-[1-(4-fluorophenyl)-ethyl]-amine] | 100 | > 75 |  |  |
| CCc1nc2ncnn2c(N[C@H]2CC[C@@H](C(C)(C)C)CC2)c1Cl [Example 1, (cis-4-tert-butyl-cyclohexyl)-[6-chloro-5-ethyl-[1,2,4]triazolo[1,5-a]pyrimidin-7-yl]-amine] | 100 | > 75 | > 75 | > 75 |
